Experimental data from BindingDB's records for doi:10.1016/j.bmc.2006.01.067 (Johnson & Johnson Pharmaceutical, 2006).

Target: T1, Integrin alpha-4/beta-7 (Homo sapiens, UniProt P13612+P26010)
T1 sequence (P13612 whole entry): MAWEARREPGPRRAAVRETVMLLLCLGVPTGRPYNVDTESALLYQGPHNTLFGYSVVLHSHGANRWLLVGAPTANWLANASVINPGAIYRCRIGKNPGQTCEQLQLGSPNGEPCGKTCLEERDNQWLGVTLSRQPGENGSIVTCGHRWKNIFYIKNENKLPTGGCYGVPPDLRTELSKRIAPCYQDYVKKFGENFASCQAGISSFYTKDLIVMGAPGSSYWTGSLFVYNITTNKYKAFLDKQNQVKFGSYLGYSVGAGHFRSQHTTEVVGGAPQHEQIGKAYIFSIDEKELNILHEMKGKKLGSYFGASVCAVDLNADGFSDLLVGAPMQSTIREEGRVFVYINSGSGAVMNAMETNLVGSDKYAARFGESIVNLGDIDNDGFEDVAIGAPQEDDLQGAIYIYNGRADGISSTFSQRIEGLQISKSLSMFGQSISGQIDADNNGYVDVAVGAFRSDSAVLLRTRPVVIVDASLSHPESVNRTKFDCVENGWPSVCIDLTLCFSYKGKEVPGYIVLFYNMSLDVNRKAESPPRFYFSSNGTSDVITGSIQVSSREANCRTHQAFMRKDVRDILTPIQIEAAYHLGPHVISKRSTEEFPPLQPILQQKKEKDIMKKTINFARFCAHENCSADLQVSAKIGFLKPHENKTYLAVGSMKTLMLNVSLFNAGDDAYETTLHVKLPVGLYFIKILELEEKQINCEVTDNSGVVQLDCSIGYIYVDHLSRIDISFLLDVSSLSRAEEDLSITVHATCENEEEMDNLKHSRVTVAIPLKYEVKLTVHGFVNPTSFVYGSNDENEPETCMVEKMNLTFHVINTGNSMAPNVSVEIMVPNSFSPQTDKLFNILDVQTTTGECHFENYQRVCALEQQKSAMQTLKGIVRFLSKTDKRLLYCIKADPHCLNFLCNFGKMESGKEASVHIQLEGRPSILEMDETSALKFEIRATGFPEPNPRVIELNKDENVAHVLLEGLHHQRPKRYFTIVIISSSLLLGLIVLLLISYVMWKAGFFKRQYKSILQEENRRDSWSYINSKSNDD
T1 sequence (P26010 whole entry): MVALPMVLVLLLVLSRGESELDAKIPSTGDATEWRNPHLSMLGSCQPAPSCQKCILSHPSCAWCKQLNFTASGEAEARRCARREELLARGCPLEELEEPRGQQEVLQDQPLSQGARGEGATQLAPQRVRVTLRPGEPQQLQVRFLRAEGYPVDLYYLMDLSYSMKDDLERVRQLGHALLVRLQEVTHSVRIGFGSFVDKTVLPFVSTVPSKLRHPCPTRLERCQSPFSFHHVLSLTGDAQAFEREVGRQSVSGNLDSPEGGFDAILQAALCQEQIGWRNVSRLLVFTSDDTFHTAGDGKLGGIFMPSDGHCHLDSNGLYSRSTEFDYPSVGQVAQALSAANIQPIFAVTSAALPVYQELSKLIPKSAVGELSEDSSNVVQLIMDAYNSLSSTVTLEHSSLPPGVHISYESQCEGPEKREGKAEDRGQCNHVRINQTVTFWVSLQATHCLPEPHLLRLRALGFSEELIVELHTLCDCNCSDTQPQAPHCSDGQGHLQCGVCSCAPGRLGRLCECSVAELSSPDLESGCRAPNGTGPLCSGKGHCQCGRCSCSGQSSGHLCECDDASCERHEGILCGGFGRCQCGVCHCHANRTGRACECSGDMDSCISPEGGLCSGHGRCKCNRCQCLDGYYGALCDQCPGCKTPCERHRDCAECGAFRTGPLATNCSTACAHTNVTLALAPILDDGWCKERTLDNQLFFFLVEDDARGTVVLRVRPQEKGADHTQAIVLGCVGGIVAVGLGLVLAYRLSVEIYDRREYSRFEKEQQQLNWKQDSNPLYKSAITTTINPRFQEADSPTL
Assay: K562 Cell Adhesion Assay (alpha4beta7 Mediated Adhesion/MAdCAM-1)
Conditions: pH 7.4; 23 °C
Procedure: M2 anti-FLAG antibody coated 96-well plates were coated with recombinant FLAG-hMAdCAM-1 contained in Dulbecco PBS. The compounds to be tested were added. Stably transfected K562 cells expressing human alpha4beta7 integrin that had been labeled with […] fluorescein diacetate succinimidyl ester (CFDA-SE) were added to each well and allowed to adhere for 1 h at room temperature. Plates were washed, and then cells were lysed. The plate was read on a 96-well fluorescent plate reader at 485 nm excitation and 530 nm emission.

Row | SMILES | IC50
1 | O=C(O)[C@H](Cc1ccc(N2C(=O)c3ccccc3C2=O)cc1)NC(=O)[C@@H]1C2CCC(CC2)N1S(=O)(=O)c1ccccc1 | 110 nM
2 | O=C(Nc1ccc(C[C@H](NC(=O)[C@@H]2C3CCC(CC3)N2S(=O)(=O)c2ccccc2)C(=O)O)cc1)c1ccncc1 [(2S)-2-{[(3S)-2-(benzenesulfonyl)-2-azabicyclo[2.2.2]octan-3-yl]formamido}-3-[4-(pyridine-4-amido)phenyl]propanoic acid] | 120 nM
3 | O=C(Nc1ccc(C[C@H](NC(=O)[C@@H]2C3CCC(CC3)N2S(=O)(=O)c2ccccc2)C(=O)O)cc1)c1cc(Cl)nc(Cl)c1 [(2S)-2-{[(3S)-2-(benzenesulfonyl)-2-azabicyclo[2.2.2]octan-3-yl]formamido}-3-{4-[(2,6-dichloropyridine-4-)amido]phenyl}propanoic acid] | 46 nM
